Experimental data published in paper PMC3909258, “Tannins from Hamamelis virginiana Bark Extract: Characterization and Improvement of the Antiviral Efficacy against Influenza A Virus and Human Papillomavirus” (PLoS ONE, 2014).
Several values for one entry are separate records, joined by “and”; a condition that tells them apart may be missing. Equal values may be shown once.

Tests used:
[1] = tested on: H1N1 A/Puerto Rico/8/34-NS116-GFP; assay: Antiviral effect against GFP reporter virus on A549 cells; conditions: for SI (CC50/EC50): CC50 A549 XTT / EC50 reporter virus; for EC50: Influenza A virus, H1N1, A549, 24 h
in vitro = conditions: human
[2] = Tannin depletion with hide powder, phenols by Folin-Ciocalteu; conditions: pyrogallol equivalents normalized to untreated sample
[3] = tested on: pandemic H1N1 A/Lux/46/2009; assay type: cell-based, influenza A virus
[4] = XTT cytotoxicity assay on A549 cells; conditions: human

SMILES | SI (CC50/EC50) [1] | EC50 [1] | CC50 at 24 h (in vitro) | Remaining phenol content after hide powder treatment [2] | Lower viral titer after virus preincubation [3] [fold] | CC50 at 24 h [4] | SI (CC50/EC50) ([1]; listed as pentagalloylglucose)
O=C(O[C@@H]1Cc2c(O)cc(O)cc2O[C@@H]1c1cc(O)c(O)c(O)c1)c1cc(O)c(O)c(O)c1 [EGCG, (−)-epigallocatechin gallate] | 85 | 12.1 µM and 5.6 µg/mL | 1.03 mM and 472 µg/mL | intermediate reduction | ~7 |  | 
O=C(O)c1cc(O)c(O)c(O)c1 [Gallic acid, Gallic acid monohydrate] |  | 50.8 µM and 9.6 µg/mL |  | 89 % of untreated |  | 770 µM and 145 µg/mL | 
O=C(OC[C@H]1OC(O)[C@@](O)(COC(=O)c2cc(O)c(O)c(O)c2)[C@@H]1O)c1cc(O)c(O)c(O)c1 (some centres unmarked) [Hamamelitannin, hamamelitannin] |  | > 10 mM |  |  |  |  | 
O=C(OC[C@H]1O[C@@H](OC(=O)c2cc(O)c(O)c(O)c2)[C@H](OC(=O)c2cc(O)c(O)c(O)c2)[C@@H](OC(=O)c2cc(O)c(O)c(O)c2)[C@@H]1OC(=O)c1cc(O)c(O)c(O)c1)c1cc(O)c(O)c(O)c1 [Pentagalloylglucose, penta-O-galloyl-β-D-glucose] | 40.0 | 19.5 µM and 18.3 µg/mL |  |  |  | 779 µM and 733 µg/mL | 40
O=C(OC[C@H]1O[C@@H](OC(=O)c2cc(O)c(O)c(OC(=O)c3cc(O)c(O)c(O)c3)c2)[C@H](OC(=O)c2cc(O)c(O)c(OC(=O)c3cc(O)c(O)c(O)c3)c2)[C@@H](OC(=O)c2cc(O)c(O)c(OC(=O)c3cc(O)c(O)c(O)c3)c2)[C@@H]1OC(=O)c1cc(O)c(O)c(OC(=O)c2cc(O)c(O)c(O)c2)c1)c1cc(O)c(O)c(OC(=O)c2cc(O)c(O)c(O)c2)c1 [Tannic acid, tannic acid] | 30.7 |  |  |  |  |  | 
